According to patent US20130164813A1, “Method for Inhibiting Transglutaminase 2 Activity Using 2-alkyloxy-3-phenylethynyl-4a,5-dihydropyrido[2,3-b]pyrazine Derivatives” (DONGGUK UNIVERSITY INDUSTRY-ACADEMIC COOPERATION FOUNDATION, priority 2011, published 2013):

Legend:
Transglutaminase 2 = target: T1, Transglutaminase 2 (Cavia cutleri, UniProt P08587); experiment: In vitro assay for inhibitory effect on TGase 2 ([1,4-14C] putrescine incorporation into succinylated casein); type: biochemical
T1 construct: purchased Sigma-Aldrich T5398
T1 sequence (P08587 1-690): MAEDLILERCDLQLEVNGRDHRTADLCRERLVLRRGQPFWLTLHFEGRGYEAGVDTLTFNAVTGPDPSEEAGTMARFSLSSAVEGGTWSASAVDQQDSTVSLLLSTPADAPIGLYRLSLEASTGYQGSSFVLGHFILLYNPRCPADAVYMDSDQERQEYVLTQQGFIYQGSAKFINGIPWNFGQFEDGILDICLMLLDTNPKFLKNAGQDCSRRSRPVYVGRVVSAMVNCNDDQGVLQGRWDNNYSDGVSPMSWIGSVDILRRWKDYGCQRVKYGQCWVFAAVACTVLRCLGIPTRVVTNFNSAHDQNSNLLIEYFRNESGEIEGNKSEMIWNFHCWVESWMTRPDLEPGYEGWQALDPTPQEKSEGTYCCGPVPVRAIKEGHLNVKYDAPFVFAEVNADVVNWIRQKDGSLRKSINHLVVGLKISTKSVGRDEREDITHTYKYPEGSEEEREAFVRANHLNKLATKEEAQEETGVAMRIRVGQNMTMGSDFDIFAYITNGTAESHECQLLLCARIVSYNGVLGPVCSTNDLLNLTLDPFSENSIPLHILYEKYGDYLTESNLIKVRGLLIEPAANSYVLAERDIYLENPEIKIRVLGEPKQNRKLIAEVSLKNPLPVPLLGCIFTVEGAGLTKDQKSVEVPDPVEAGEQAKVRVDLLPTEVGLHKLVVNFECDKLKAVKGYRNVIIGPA
Protocol: In vitro Assay for Inhibitory effect of 2-alkyloxy-3-phenylethynyl-4a,5-dihydropyrido[2,3-b]pyrazine derivative on TGase 2.
Method. […] Succinylated casein was purchased from Calbiochem (Cat. No. 573464), and 1 g of the powder was dissolved in 50 ml of a reaction buffer solution containing 5 mM DTT (0.1 M Tris-acetate (pH 8.0), 10 mM CaCl2, 0.15 M NaCl, 1.0 mM EDTA). This solution was stored in a deep freezer for further use. [1,4-14C] Putrescine dihydrochloride was purchased from GE Healthcare (Cat. No. CFA301), and the stock solution was diluted with distilled water to yield a radiological dose of 5 μCi/ml. Transglutaminase 2 was purchased from Sigma-Aldrich (Cat. No. T5398), and diluted with distilled water to yield a final concentration of 1 unit/ml. 2-Alkyloxy-3-phenylethynyl-4a,5-dihydropyrido[2,3-b]pyrazine derivative was dissolved at a concentration of 1 mM to prepare its stock solution, and the stock solution was diluted with DMSO to prepare solutions having various concentrations.
450 μl of succinylated casein solution and 50 μl of [1,4-14C] putrescine dihydrochloride solution were mixed together to prepare a substrate solution. 96 μl of the reaction buffer, 3 μl of the stock solution of the compounds of the present invention, and 1 μl of the stock solution of transglutaminase were mixed together to prepare each sample, followed by incubation at 37° C. for 10 min. 500 μl of the substrate solution and 100 μl of sample solution were mixed well, and the mixture was incubated at 37° C. for 2 hrs and then the reaction terminated by adding 4.5 ml of cold (4° C.) 7.5% TCA. The final solution was stored at 4° C. for 1 hr. The TCA-protein precipitates were filtered through a GF/glass fiber filter, washed with 25 ml of cold 5% TCA, and dried. Radioactivity of cross-linked protein was measured using a β-counter (Beckman Coulter), and compensated by the activity of DMSO-control group as a standard. The activity of transglutaminase was represented by the measured values.

786-O = experiment: SRB test, renal cancer cell line 786-O; type: cell-based; conditions: Homo sapiens, 786-0, 48 hours, read-out: IG50 (×E−7)
Protocol: (§1) Test of Anti-cancer efficacy in the Cancer cell line. In order to examine anti-cancer efficacy of 2-alkyloxy-3-phenylethynyl-4a,5-dihydropyrido[2,3-b]pyrazine derivatives, Eight renal cancer cell lines were treated to perform an SRB test. In order to compare the anti-cancer efficacy, sutent® (Pfizer) was used for comparison.
(§2) 1) Method (SRB Test). The cancer cell lines were cultured in an RPMI 1640 medium containing 5% fetal bovine serum and 2 mM L-glutamine. The cancer cells were inoculated into a 96 well microtiter plate at a density of 5,000 or 40,000 cells/well. The cells were incubated at 37° C., 5% CO2, 95% air and 100% humidity for 24 hours prior to drug treatment.
(§3) After 24 hours, the cells were fixed with TCA at the time of drug addition (Tz). The drug was treated by 10-fold or log scale serial dilutions, and the efficacy was examined at a concentration of 5 point or more. After drug treatment, the cells were incubated for 48 hours. […] Bound stain was subsequently solubilized with trizma base, and the absorbance was read at 515 nm.
(§4) Growth inhibitory efficacy was measured by using the seven absorbance measurements. [time zero, (Tz), control growth, (C), and test growth in the presence of drug at the five concentration levels (Ti)], the percentage growth was calculated at each of the drug concentrations levels. […]

ACHN = experiment: SRB test, renal cancer cell line ACHN; type: cell-based; conditions: Homo sapiens, 48 hours, read-out: IG50 (×E−7)
Protocol: as §1, §2, §3, §4

A498 = experiment: SRB test, renal cancer cell line A498; type: cell-based; conditions: Homo sapiens, A498, 48 hours, read-out: IG50 (×E−7)
Protocol: as §1, §2, §3, §4

CAKI-I = experiment: SRB test, renal cancer cell line CAKI-I; type: cell-based; conditions: 48 hours, read-out: IG50 (×E−7)
Protocol: as §1, §2, §3, §4

RXF393 = experiment: SRB test, renal cancer cell line RXF393; type: cell-based; conditions: Homo sapiens, RXF 393, RXF393, 48 hours, read-out: IG50 (×E−7)
Protocol: as §1, §2, §3, §4

SN12C = experiment: SRB test, renal cancer cell line SN12C; type: cell-based; conditions: Homo sapiens, 48 hours, read-out: IG50 (×E−7)
Protocol: as §1, §2, §3, §4

TK10 = experiment: SRB test, renal cancer cell line TK10; type: cell-based; conditions: Homo sapiens, TK-10, TK10, 48 hours, read-out: IG50 (×E−7)
Protocol: as §1, §2, §3, §4

US31 = experiment: SRB test, renal cancer cell line US31; type: cell-based; conditions: 48 h, read-out: IG50 (×E−7)
Protocol: as §1, §2, §3, §4

renal cancer cell lines = experiment: SRB test, eight renal cancer cell lines together; type: cell-based
Protocol: as §1, §2, §3, §4

MDA-MB-231 cells = experiment: Anti-cancer efficacy on MDA231 breast cancer cell line by animal study (subcutaneous xenograft); type: in vivo; conditions: 4 mg/kg, compared to the cisplatin-treated group, FIGS. 3 and 4
Protocol: Evaluation of Anti-cancer efficacy of TGase 2 inhibitor on MDA231 breast cancer cell line by animal study.
MDA-MB-231 cells were cultured in a DMEM medium containing 10% FBS.
8×10^6 of MDA-MB-231 cells were subcutaneously injected into 7-week-old female Balb/c-nude mice. Four TGase inhibitors and doxorubicin were co-administered, and the effects were examined Group 1: saline. […] Group 3: 2-alkyloxy-3-phenylethynyl-4a,5-dihydropyrido[2,3-b]pyrazine derivative (4 mg/kg).
The prepared cancer cell, MDA-MB231/luciferase (8×10^6 cells/head) was subcutaneously injected into animals 7 days after their arrival. When a volume of the injected cancer cells reached 100 mm3, drug treatment was started.
After injection of MDA-MB-231, when a volume of the injected tumor reached 100 mm3, drug treatment was performed. After 3-4 weeks, the mice were sacrificed.
After the tumor volume reached 100 mm3, the size was measured three times per week during the drug treatment period. The tumor volume was calculated as ‘long axis×long axis×short axis/2’.

C(#Cc1nc2ncccc2nc1OCCN1CCCC1)c1ccccc1 [Example 1, 3-phenylethynyl-2-(2-(pyrrolidin-1-yl)ethoxy)pyrido[2,3-b]pyrazine]
IC50 (Transglutaminase 2; FIG. 1): 0.0338 µM
inhibition at 10 µM (Transglutaminase 2): 91%
IC50 (786-O): 0.225 µM
IC50 (ACHN): 0.137 µM
IC50 (A498): 5.61 µM
IC50 (CAKI-I): 0.071 µM
IC50 (RXF393): 0.179 µM
IC50 (SN12C): 0.186 µM
IC50 (TK10): 0.529 µM
IC50 (US31): 5.49 µM
GI50 (renal cancer cell lines; eight renal cancer cell lines, SRB, read-out: Average GI50 over all cell lines): 0.43 µM
anti-cancer efficacy compared with SUTENT (renal cancer cell lines; renal cancer cell line, SRB growth rate, FIG. 2): better than that of SUTENT®
reduction in the tumor size (MDA-MB-231 cells): the best effect of a reduction in the tumor size

C(#Cc1nc2ncccc2nc1OCCN1CCCCC1)c1ccccc1 [Example 2, 3-phenylethynyl-2-(2-(piperidin-1-yl)ethoxy)pyrido[2,3-b]pyrazine]
inhibition at 10 µM (Transglutaminase 2): 83%

C(#Cc1nc2ncccc2nc1OCCN1CCOCC1)c1ccccc1 [Example 3, 4-(2-(3-(phenylethynyl)pyrido[3,2-b]pyrazin-2-yloxy)ethyl)morpholine]
inhibition at 10 µM (Transglutaminase 2): 47%

C(#Cc1nc2ncccc2nc1OCCCN1CCCC1)c1ccccc1 [Example 4, 3-(phenylethynyl)-2-(3-(pyrrolidin-1-yl)propoxy)pyrido[3,2-b]pyrazine]
inhibition at 10 µM (Transglutaminase 2): 59%

C(#Cc1nc2ncccc2nc1OCCCN1CCCCC1)c1ccccc1 [Example 5, 3-(phenylethynyl)-2-(3-(piperidin-1-yl)propoxy)pyrido[3,2-b]pyrazine]
inhibition at 10 µM (Transglutaminase 2): 54%

C(#Cc1nc2ncccc2nc1OCCCN1CCOCC1)c1ccccc1 [Example 6, 4-(3-(3-(phenylethynyl)pyrido[3,2-b]pyrazin-2-yloxy)propyl)morpholine]
inhibition at 10 µM (Transglutaminase 2): 32%

O=C1CCCN1CCCOc1nc2cccnc2nc1C#Cc1ccccc1 [Example 7, 1-(3-(3-(phenylethynyl)pyrido[3,2-b]pyrazin-2-yloxy)propyl)pyrrolidin-2-one]
inhibition at 10 µM (Transglutaminase 2): 43%

CN(C)c1ccc(C#Cc2nc3ncccc3nc2OCCN2CCCC2)cc1 [Example 8, N,N-dimethyl-4-((2-(2-(pyrrolidin-1-yl)ethoxy)pyrido[3,2-b]pyrazin-3-yl)ethynyl)benzenamine]
inhibition at 10 µM (Transglutaminase 2): 68%

CN(C)c1ccc(C#Cc2nc3ncccc3nc2OCCN2CCCCC2)cc1 [Example 9, N,N-dimethyl-4-((2-(2-(piperidin-1-yl)ethoxy)pyrido[3,2-b]pyrazin-3-yl)ethynyl)benzenamine]
inhibition at 10 µM (Transglutaminase 2): 57%

COc1ccc(C#Cc2nc3ncccc3nc2OCCN2CCCC2)cc1 [Example 14, 3-(4-methoxyphenylethynyl)-2-(2-pyrrolidin-1-ylethoxy)pyrido[3,2-b]pyrazine]
inhibition at 10 µM (Transglutaminase 2): 64%

COc1ccc(C#Cc2nc3ncccc3nc2OCCN2CCCCC2)cc1 [Example 15, 3-(4-methoxyphenylethynyl)-2-(2-piperidin-1-ylethoxy)pyrido[3,2-b]pyrazine]
inhibition at 10 µM (Transglutaminase 2): 51%

Cc1ccc(C#Cc2nc3ncccc3nc2OCCN2CCCC2)cc1 [Example 21, 2-(2-(pyrrolidin-1-yl)ethoxy)-3-(p-tolylethynyl)pyrido[3,2-b]pyrazine]
inhibition at 10 µM (Transglutaminase 2): 52%

CN(C)c1ccccc1C#Cc1nc2ncccc2nc1OCCN1CCCC1 [Example 42, N,N-dimethyl-2-((2-(2-(pyrrolidin-1-yl)ethoxy)pyrido[3,2-b]pyrazin-3-yl)ethynyl)benzenamine]
inhibition at 10 µM (Transglutaminase 2): 63%

CN(C)c1ccccc1C#Cc1nc2ncccc2nc1OCCN1CCCCC1 [Example 43, N,N-dimethyl-2-((2-(2-(piperidin-1-yl)ethoxy)pyrido[3,2-b]pyrazin-3-yl)ethynyl)benzenamine]
inhibition at 10 µM (Transglutaminase 2): 54%
